Assay results: US20240209028A1, “CNP COMPOUNDS” (priority 2022, published 2024)
Starred links: 1 amine or outer side, 2 acyl side, 3 side chain; linkers in the order of their positions; H or OH if unused. Positions of bridges follow the written chain, without caps; N, C: chain ends. Residues, ends and D or L forms follow the SMILES beside them. *: point of attachment. C18 diacid = O=C(O)CCCCCCCCCCCCCCCCC(=O)*; γGlu = O=C(O)[C@H](CCC(=O)[*:2])N[*:1]; AEEA = NCCOCCOCC(=O)O

Molecular target: T1, human natriuretic peptide receptor 2 (hNPR2) (Homo sapiens, UniProt P20594)
T1 construct: expressed in transfected cells; host or cells: HEK293 (ATCC CRL-1573), clone 35, co-transfected with pGloSensor-42F
T1 sequence (P20594 23-1047): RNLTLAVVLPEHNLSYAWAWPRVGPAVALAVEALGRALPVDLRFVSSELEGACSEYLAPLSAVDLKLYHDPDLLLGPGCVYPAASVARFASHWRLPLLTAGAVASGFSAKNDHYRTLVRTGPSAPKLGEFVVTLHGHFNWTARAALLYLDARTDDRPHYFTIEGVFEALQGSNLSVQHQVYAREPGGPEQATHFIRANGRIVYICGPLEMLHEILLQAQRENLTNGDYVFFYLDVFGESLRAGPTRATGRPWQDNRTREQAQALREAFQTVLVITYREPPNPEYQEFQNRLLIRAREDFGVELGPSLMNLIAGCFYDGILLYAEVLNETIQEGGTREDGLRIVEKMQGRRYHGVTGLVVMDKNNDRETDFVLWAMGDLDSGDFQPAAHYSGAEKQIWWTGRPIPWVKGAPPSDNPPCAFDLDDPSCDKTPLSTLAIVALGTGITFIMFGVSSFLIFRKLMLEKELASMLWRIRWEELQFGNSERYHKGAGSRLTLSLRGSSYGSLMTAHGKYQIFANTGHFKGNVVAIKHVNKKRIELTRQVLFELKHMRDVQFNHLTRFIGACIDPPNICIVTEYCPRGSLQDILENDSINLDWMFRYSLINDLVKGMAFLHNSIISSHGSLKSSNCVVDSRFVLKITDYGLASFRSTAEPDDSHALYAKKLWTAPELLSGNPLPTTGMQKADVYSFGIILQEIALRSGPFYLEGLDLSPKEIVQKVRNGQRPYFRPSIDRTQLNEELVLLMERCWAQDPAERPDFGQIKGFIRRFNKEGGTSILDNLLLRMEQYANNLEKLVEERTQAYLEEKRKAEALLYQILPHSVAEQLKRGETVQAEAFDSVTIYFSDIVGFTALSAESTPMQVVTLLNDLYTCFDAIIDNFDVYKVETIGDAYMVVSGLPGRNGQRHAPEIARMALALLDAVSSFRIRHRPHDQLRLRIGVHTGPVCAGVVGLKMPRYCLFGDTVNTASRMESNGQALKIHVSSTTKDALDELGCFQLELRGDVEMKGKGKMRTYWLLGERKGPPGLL
Assay: In vitro hNPR2 activity assay (cGMP GloSensor reporter, HEK293)
Assay type: cell-based
Details: for hNPR2 0% HSA. [EC50% rel CNP]: potency relative to CNP22 (0065)
Outline: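 Potency is the EC50 from a four-parameter logistic fit, also expressed relative to the in-plate CNP22 control (×100), with at least two replicates. Compounds (ten concentrations, […], HSA-free diluent with 1% OVA, 0.01% Tween20) were incubated 30 min at 37 °C on HEK293 cells co-expressing hNPR2 and a GloSensor cGMP luciferase. Luminescence detected with Bright-Glo.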

SMILES | hNPR2 0% HSA. [EC50% rel CNP] | EC50 (0% HSA, HEK293-hNPR2/GloSensor cells)
CC[C@H](C)[C@@H]1NC(=O)[C@H](CCCNC(=N)N)NC(=O)[C@H](CC(=O)O)NC(=O)[C@H](CC(C)C)NC(=O)[C@@H]2CCCN2C(=O)[C@H](CC(C)C)NC(=O)CNC(=O)[C@H](Cc2ccccc2)NC(=O)[C@@H](NC(=O)CNC(=O)[C@H](CO)NC(=O)[C@H](CO)NC(=O)[C@@H](NC(=O)CNC(=O)[C@@H](NC(=O)[C@H](CCCCN)NC(=O)[C@H](CCC(N)=O)NC(=O)[C@H](C)NC(=O)CNC(=O)[C@H](Cc2c[nH]cn2)NC(=O)[C@H](Cc2ccc(O)cc2)NC(=O)COCCOCCNC(=O)COCCOCCNC(=O)COCCOCCNC(=O)CC[C@H](NC(=O)CCCCCCCCCCCCCCCCC(=O)O)C(=O)O)[C@@H](C)O)C(C)C)CSSC[C@@H](C(=O)O)NC(=O)CNC(=O)[C@H](CC(C)C)NC(=O)CNC(=O)[C@H](CO)NC(=O)[C@H](CC(C)C)NC(=O)[C@H](CO)NC(=O)CNC1=O [compound 1352] ({C18 diacid-γGlu-AEEA-AEEA-AEEA}-YHGAQKTGVSSGCFGLPLDRIGSLSGLGC-OH; disulfide 13-29) | 38.6% | –
CC[C@H](C)[C@@H]1NC(=O)[C@H](CCCNC(=N)N)NC(=O)[C@H](CC(=O)O)NC(=O)[C@H](CC(C)C)NC(=O)[C@@H]2CCCN2C(=O)[C@H](CC(C)C)NC(=O)CNC(=O)[C@H](Cc2ccccc2)NC(=O)[C@@H](NC(=O)CNC(=O)[C@H](CO)NC(=O)[C@H](CO)NC(=O)[C@H](CC(C)C)NC(=O)CNC(=O)[C@H](CCCCN)NC(=O)[C@H](CCCCN)NC(=O)[C@H](CCC(N)=O)NC(=O)[C@H](C)NC(=O)CNC(=O)[C@H](CCC(=O)O)NC(=O)[C@H](Cc2ccc(O)cc2)NC(=O)[C@H](CO)NC(=O)[C@H](CCCNC(=N)N)NC(=O)[C@H](C)NC(=O)[C@H](CCC(N)=O)NC(=O)[C@@H]2CCCN2C(=O)[C@H](Cc2c[nH]cn2)NC(=O)[C@H](CCC(=O)O)NC(=O)[C@H](CCC(N)=O)NC(=O)COCCOCCNC(=O)COCCOCCNC(=O)CC[C@H](NC(=O)CCCCCCCCCCCCCCCCC(=O)O)C(=O)O)CSSC[C@@H](C(=O)O)NC(=O)CNC(=O)[C@H](CC(C)C)NC(=O)CNC(=O)[C@H](CO)NC(=O)[C@H](CC(C)C)NC(=O)[C@H](CO)NC(=O)CNC1=O [compound 1379] ({C18 diacid-γGlu-AEEA-AEEA}-QEHPQARSYEGAQKKGLSSGCFGLPLDRIGSLSGLGC-OH; disulfide 21-37; C-terminus assumed) | 33.5% | –
CC[C@H](C)[C@@H]1NC(=O)[C@H](CCCNC(=N)N)NC(=O)[C@H](CC(=O)O)NC(=O)[C@H](CC(C)C)NC(=O)[C@@H]2CCCN2C(=O)[C@H](CC(C)C)NC(=O)CNC(=O)[C@H](Cc2ccccc2)NC(=O)[C@@H](NC(=O)CNC(=O)[C@H](CO)NC(=O)[C@H](CO)NC(=O)[C@H](CC(C)C)NC(=O)CNC(=O)[C@H](CCCCN)NC(=O)[C@H](CCCCN)NC(=O)[C@H](CCC(N)=O)NC(=O)[C@H](C)NC(=O)CNC(=O)[C@H](Cc2c[nH]cn2)NC(=O)[C@H](CCC(=O)O)NC(=O)COCCOCCNC(=O)COCCOCCNC(=O)CC[C@H](NC(=O)CCCCCCCCCCCCCCCCC(=O)O)C(=O)O)CSSC[C@@H](C(=O)O)NC(=O)CNC(=O)[C@H](CC(C)C)NC(=O)CNC(=O)[C@H](CO)NC(=O)[C@H](CC(C)C)NC(=O)[C@H](CO)NC(=O)CNC1=O [compound 1310] ({C18 diacid-γGlu-AEEA-AEEA}-EHGAQKKGLSSGCFGLPLDRIGSLSGLGC-OH; disulfide 13-29) | 10.4% | –
CC[C@H](C)[C@@H]1NC(=O)[C@H](CCCNC(=N)N)NC(=O)[C@H](CC(=O)O)NC(=O)[C@H](CC(C)C)NC(=O)[C@@H]2CCCN2C(=O)[C@H](CC(C)C)NC(=O)CNC(=O)[C@H](Cc2ccccc2)NC(=O)[C@@H](NC(=O)CNC(=O)[C@H](CCC(N)=O)NC(=O)[C@H](CO)NC(=O)[C@H](CO)NC(=O)CNC(=O)[C@H](CCCCN)NC(=O)[C@H](CCCCN)NC(=O)[C@H](CCC(N)=O)NC(=O)[C@H](C)NC(=O)CNC(=O)[C@@H]2CCCN2C(=O)[C@H](C)NC(=O)[C@H](CCC(N)=O)NC(=O)CNC(=O)[C@@H]2CCCN2C(=O)[C@H](C)NC(=O)[C@H](CCC(N)=O)NC(=O)CNC(=O)[C@@H]2CCCN2C(=O)[C@H](C)NC(=O)[C@H](CCC(N)=O)NC(=O)CNC(=O)COCCOCCNC(=O)COCCOCCNC(=O)CC[C@H](NC(=O)CCCCCCCCCCCCCCCCC(=O)O)C(=O)O)CSSC[C@@H](C(=O)O)NC(=O)CNC(=O)[C@H](CC(C)C)NC(=O)CNC(=O)[C@H](CO)NC(=O)[C@H](CC(C)C)NC(=O)[C@H](CO)NC(=O)CNC1=O [compound 1457] ({C18 diacid-γGlu-AEEA-AEEA}-GQAPGQAPGQAPGAQKKGSSQGCFGLPLDRIGSLSGLGC-OH; disulfide 23-39) | 79.4% | –
CC[C@H](C)[C@@H]1NC(=O)[C@H](CCCNC(=N)N)NC(=O)[C@H](CC(=O)O)NC(=O)[C@H](CC(C)C)NC(=O)[C@@H]2CCCN2C(=O)[C@H](CC(C)C)NC(=O)CNC(=O)[C@H](Cc2ccccc2)NC(=O)[C@@H](NC(=O)CNC(=O)[C@H](CO)NC(=O)[C@H](CO)NC(=O)[C@H](CC(C)C)NC(=O)CNC(=O)[C@H](CCCCN)NC(=O)[C@H](CCCCN)NC(=O)[C@H](CCC(N)=O)NC(=O)[C@H](C)NC(=O)CNC(=O)[C@H](CCCCN)NC(=O)[C@H](Cc2ccc(O)cc2)NC(=O)COCCOCCNC(=O)COCCOCCNC(=O)CC[C@H](NC(=O)CCCCCCCCCCCCCCCCC(=O)O)C(=O)O)CSSC[C@@H](C(=O)O)NC(=O)CNC(=O)[C@H](CC(C)C)NC(=O)CNC(=O)[C@H](CO)NC(=O)[C@H](CC(C)C)NC(=O)[C@H](CO)NC(=O)CNC1=O [compound 1233] ({C18 diacid-γGlu-AEEA-AEEA}-YKGAQKKGLSSGCFGLPLDRIGSLSGLGC-OH; disulfide 13-29) | 49.7% | –
CC[C@H](C)[C@@H]1NC(=O)[C@H](CCCNC(=N)N)NC(=O)[C@H](CC(=O)O)NC(=O)[C@H](CC(C)C)NC(=O)[C@@H]2CCCN2C(=O)[C@H](CC(C)C)NC(=O)CNC(=O)[C@H](Cc2ccccc2)NC(=O)[C@@H](NC(=O)CNC(=O)[C@H](CCCCN)NC(=O)[C@H](CO)NC(=O)CNC(=O)CNC(=O)[C@H](CCCCN)NC(=O)[C@H](CCCCN)NC(=O)[C@H](CCC(N)=O)NC(=O)[C@H](C)NC(=O)CNC(=O)[C@H](CCC(=O)O)NC(=O)[C@H](Cc2ccc(O)cc2)NC(=O)COCCOCCNC(=O)COCCOCCNC(=O)CC[C@H](NC(=O)CCCCCCCCCCCCCCCCC(=O)O)C(=O)O)CSSC[C@@H](C(=O)O)NC(=O)CNC(=O)[C@H](CC(C)C)NC(=O)CNC(=O)[C@H](CO)NC(=O)[C@H](CC(C)C)NC(=O)[C@H](CO)NC(=O)CNC1=O [compound 1377] ({C18 diacid-γGlu-AEEA-AEEA}-YEGAQKKGGSKGCFGLPLDRIGSLSGLGC-OH; disulfide 13-29) | 28.2% | –
CC[C@H](C)[C@@H]1NC(=O)[C@H](CCCNC(=N)N)NC(=O)[C@H](CC(=O)O)NC(=O)[C@H](CC(C)C)NC(=O)[C@H](CCCCN)NC(=O)[C@H](CC(C)C)NC(=O)CNC(=O)[C@H](Cc2ccccc2)NC(=O)[C@@H](NC(=O)CNC(=O)[C@H](CCCCN)NC(=O)[C@H](CO)NC(=O)[C@H](CC(C)C)NC(=O)CNC(=O)[C@H](CCCCN)NC(=O)[C@H](CCCCN)NC(=O)[C@H](CCC(N)=O)NC(=O)[C@H](C)NC(=O)CNC(=O)[C@H](Cc2c[nH]cn2)NC(=O)[C@H](CCC(=O)O)NC(=O)COCCOCCNC(=O)COCCOCCNC(=O)CC[C@H](NC(=O)CCCCCCCCCCCCCCCCC(=O)O)C(=O)O)CSSC[C@@H](C(=O)O)NC(=O)CNC(=O)[C@H](CC(C)C)NC(=O)CNC(=O)[C@H](CO)NC(=O)[C@H](CC(C)C)NC(=O)[C@H](CO)NC(=O)CNC1=O [compound 1235] | 27.2% | 1.17 nM
